Reference: patent US20100056513A1, “STEREOSPECIFICALLY SUBSTITUTED BENZO[1,3]DIOXOLYL DERIVATIVES” (priority 2005, published 2010)
Like-named read-outs stand apart in the source and are kept apart here.

What was measured:
[1] = target: T1, human cannabis CB1 receptor (Homo sapiens, UniProt P21554); assay: CB1 receptor affinity, [3H]-CP-55,940 radioligand binding on HEK cell membranes
T1 construct: expressed in transfected cells; host or cells: human embryonic kidney (HEK) cells, Semliki Forest Virus system, membrane preparation
Description: The affinity of the compounds of the invention for cannabinoid CB1 receptors was determined using membrane preparations of human embryonic kidney (HEK) cells in which the human cannabis CB1 receptor is transiently transfected using the Semliki Forest Virus system in conjunction with [3H]-CP-55,940 as radioligand. After incubation of a freshly prepared cell membrane preparation with the [3H]-ligand, with or without addition of compounds of the invention, separation of bound and free ligand was performed by filtration over glassfiber filters. Radioactivity on the filter was measured by liquid scintillation counting.
The data is determined with the experimental conditions described in Devane et. al. Mol. Pharmacol. 34 (1988) 605-613.

NMRI mice = assay: CP 55,940-induced hypothermia in NMRI mice; type: in vivo; conditions: po, CP 55,940 0.3 mg/kg i.v.; for Hypothermia in NMRI mice ID50 or minimum effective dose (MED), result in words: highest dose 30 mg/kg
Description: Effect of CB1 Receptor Antagonist/Inverse Agonist on CP 55,940-Induced Hypothermia in NMRI Mice
Male NMRI mice were used in this study and were obtained from Research Consulting Company Ltd (RCC) of Füllinsdorf (Switzerland). Mice, weighing 30-31 g were used in this study. Ambient temperature is approximately 20-21° C. and relative humidity 55-65%. A 12 hours light-dark cycle is maintained in the rooms with all tests being performed during the light phase. Access to tap water and food are ad libitum.
All measurements were made between 12:00 am and 5:00 pm. Mice were brought in this environment and habituated for at least two hours before the start of the experiment. They had always free access to food and water. For each dose, 8 mice were used. Rectal body temperature measurements were recorded by mean of a rectal probe (RET2 of Physitemp) and digital thermometer (Digi-sense n°8528-20 of Cole Parmer, Chicago USA). The probe was inserted about 3.5 cm in each mouse.
The body temperature was taken 15 min before administration of either Vehicle or CB1 receptor antagonist/inverse agonist. 30 or 90 min after i.p. or p.o. administration of this compound, respectively, rectal body temperature was recorded in order to evaluate any influence of the compound itself. The CB receptor agonist CP 55,940 (0.3 mg/kg) was immediately administered intravenously, then 20 min after i.v. administration of CP 55940, body temperature was again measured.

[2] = tested on: obese Spague-Dawley rats fed a high fat diet; assay: Body weight reduction in obese rats fed a high fat diet; type: in vivo; conditions: over 17 days
Description: In vivo efficacy in the hypothermia model translated into efficacy in a disease related model, namely body weight reduction in obese Spague-Dawley rats fed a high fat diet (in analogy to Vickers et al. Psychopharmacology 2003, 167, 103-11 for obese fa/fa rats).

[3] = doses of 10 and 20 mg daily; cited from earlier work
[4] = Table 2, read-out: CB1 receptor affinity IC50
[5] = Table 1, read-out: IC50 (affinity for the CB1 receptor)

T1 sequence (P21554 whole entry): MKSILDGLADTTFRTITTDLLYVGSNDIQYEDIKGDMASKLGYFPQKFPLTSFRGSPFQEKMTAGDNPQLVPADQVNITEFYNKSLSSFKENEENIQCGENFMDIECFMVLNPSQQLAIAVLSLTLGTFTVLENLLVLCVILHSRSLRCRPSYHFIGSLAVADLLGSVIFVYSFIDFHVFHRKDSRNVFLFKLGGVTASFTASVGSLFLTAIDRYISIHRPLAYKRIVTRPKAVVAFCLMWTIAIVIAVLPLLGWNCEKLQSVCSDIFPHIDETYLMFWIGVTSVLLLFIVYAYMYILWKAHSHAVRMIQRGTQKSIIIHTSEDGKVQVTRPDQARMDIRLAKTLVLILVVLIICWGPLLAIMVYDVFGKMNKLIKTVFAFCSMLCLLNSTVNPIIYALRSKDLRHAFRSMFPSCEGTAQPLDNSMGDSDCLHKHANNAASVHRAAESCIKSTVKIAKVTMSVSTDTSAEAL

O=C(c1cc2c(cc1F)OC(c1ccc(Cl)cc1)(c1ccc(Cl)cc1)O2)N1CCOCC1 [Meso-[2,2-Bis-(4-chloro-phenyl)-6-fluoro-benzo[1,3]dioxol-5-yl]-morpholin-4-yl-methanone, reference compound]
IC50 [1, 4]: 26 nM | Hypothermia in NMRI mice ID50 or minimum effective dose (MED), result in words (NMRI mice): inactive at 30

O=C(c1cc2c(cc1F)O[C@](c1ccc(F)cc1)(c1ccc(Cl)cc1Cl)O2)N1CCOCC1 [R-(+)-[2-(2,4-Dichloro-phenyl)-2-(4-fluoro-phenyl)-6-fluoro-benzo[1,3]dioxol-5-yl]-morpholin-4-yl-methanone]
IC50 [1, 5]: 7 nM

O=C(c1cc2c(cc1F)O[C@](c1ccccc1F)(c1ccc(Cl)cc1Cl)O2)N1CCOCC1 [R-(+)[2-(2,4-Dichloro-phenyl)-6-fluoro-2-(2-fluoro-phenyl)-benzo[1,3]dioxol-5-yl]-morpholin-4-yl-methanone]
IC50 [1, 5]: 5 nM | Hypothermia in NMRI mice ID50 (NMRI mice): ID50: 4.0 mg/kg po

O=C(c1cc2c(cc1F)O[C@](c1ccc(Cl)cc1)(c1ccc(Cl)cc1Cl)O2)N1CCOCC1 [R-(−)-[2-(4-Chloro-phenyl)-2-(2,4-dichloro-phenyl)-6-fluoro-benzo[1,3]dioxol-5-yl]-morpholin-4-yl-methanone]
IC50 [1, 5]: 2.5 nM | Hypothermia in NMRI mice ID50 (NMRI mice): ID50: 1.6 mg/kg po | BW reduction ([2]; once daily 3 mg/kg po): 9.7%

O=C(c1cc2c(cc1F)O[C@@](c1ccc(Cl)cc1)(c1ccc(Cl)cc1Cl)O2)N1CCOCC1 [S-(+)[2-(4-Chloro-phenyl)-2-(2,4-dichloro-phenyl)-6-fluoro-benzo[1,3]dioxol-5-yl]-morpholin-4-yl-methanone]
IC50 [1, 5]: 17 nM | IC50 [1, 4]: 17 nM | Hypothermia in NMRI mice minimum effective dose (MED) (NMRI mice): MED: 10 mg/kg po

O=C(c1cc2c(cc1F)O[C@@](c1ccccc1F)(c1ccc(Cl)cc1Cl)O2)N1CCOCC1 [S-(−)-[2-(2,4-dichloro-phenyl)-6-fluoro-2-(2-fluoro-phenyl)-benzo[1,3]dioxol-5-yl]-morpholin-4-yl-methanone]
IC50 [1, 5]: 33 nM | Hypothermia in NMRI mice ID50 or minimum effective dose (MED), result in words (NMRI mice): inactive at 30

O=C(c1cc2c(cc1F)O[C@@](c1ccc(F)cc1)(c1ccc(Cl)cc1Cl)O2)N1CCOCC1 [S-(−)[2-(2,4-Dichloro-phenyl)-2-(4-fluoro-phenyl)-6-fluoro-benzo[1,3]dioxol-5-yl]-morpholin-4-yl-methanone]
IC50 [1, 5]: 75 nM

Cc1c(C(=O)NN2CCCCC2)nn(-c2ccc(Cl)cc2Cl)c1-c1ccc(Cl)cc1 [rimonabant, reference compound]
BW reduction ([2]; once daily 10 mg/kg po): 6.6% | body weight compared to placebo [3]: significantly reduced body weight
